Test results taken from patent US10428081B2, “EGFR inhibitor, preparation method and use thereof” (Shanghai Hansoh Biomedical Co., Ltd., priority 2014, dated 2019).

Legend:
[1] = target: exon 20 T790M mutant-type EGFR enzyme (Homo sapiens, UniProt P00533, T790M); test: Enzymologic experiment of T790M mutant-type EGFR (TR-FRET); format: biochemical; conditions: for IC50: T790M EGFR enzyme, TR-FRET, ATP 1 to 10 uM; for Selectivity of wild-type/mutant-type: ratio WT IC50 / T790M IC50, enzyme
Experimental: (§1) 2) 1 to 5 μL of diluted solution in gradient of the compound was added.
(§2) 3) The mixture was incubated for 10 minutes at room temperature.
(§3) 6) 5 μL of EDTA stop solution was added to terminate the reaction for 5 minutes.
7) […] of a test solution containing the labeled antibody was added, and the mixture was incubated at room temperature for 1 hour.
9) The inhibition rates were calculated according to the fluorescence signal values.
(§4) 10) The IC50 of the compound was obtained by curve fitting according to the inhibition rates at different concentrations.

wild-type EGFR enzyme = wild-type EGFR enzyme (Homo sapiens, UniProt P00533); test: Enzymologic experiment of wild-type (WT) EGFR (TR-FRET); format: biochemical; conditions: ATP 0.1 to 5 uM
Experimental: 2. Enzymologic Experiment of Wild-Type (WT) EGFR
In this experiment, the inhibitory effect of compounds on wild-type EGFR enzyme was tested by a fluorescence resonance energy transfer (TR-FRET) method, and the half maximal inhibitory concentration IC50 of the compounds on enzymatic activity was determined.
1) 1 to 5 μL of wild-type EGFR enzyme solution was added to a 384-well plate, and the final concentration of the enzyme was 0.1 to 1 nM.
as §1, §2, §3
7) 5 μL of a test solution containing the labeled antibody was added, and the mixture was incubated at room temperature for 1 hour.
9) The inhibition rates were calculated from the fluorescence signal values.
as §4

NCI-H1975 cells = test: Inhibition of NCI-H1975 cell proliferation (CellTiter-Glo); format: cell-based; conditions: for IC50: Homo sapiens, NCI-H1975, 72 h, NCI-H1975 cell proliferation, 72 hours, CellTiter-Glo, read-out: EGFR IC50 (nM) H1975; for Selectivity of wild-type/mutant-type: ratio A431 IC50 / H1975 IC50, cells
Experimental: 3. Experiment on the Inhibition of NCI-H1975 Cell Proliferation
In this experiment, the inhibitory effect of the compounds on NCI-H1975 cell proliferation was tested by a CellTiter-Glo method, and the half maximal inhibitory concentration (IC50) of the compounds on the activity of cell proliferation was determined.
The culture plate was incubated in an incubator for 16 to 24 hours (37° C., 5% CO2).
(§5) 2) Different concentrations of the test compound in a gradient dilution were added to the cells in the culture plate. The culture plate was incubated in an incubator for 72 hours (37° C., 5% CO2).
3) 50 to 100 μL of CellTiter-Glo reagent was added to each well. Then, the culture plate was shaken for 10 minutes, and left to stand at room temperature for 10 minutes.
(§6) 4) The chemiluminescence signal values of each plate were determined by a microplate reader.
5) The inhibition rates were calculated according to the chemiluminescence signal values.
6) The IC50 of the compound was obtained by curve fitting according to the inhibition rates at different concentrations.

A431 cells = test: Inhibition of A431 cell proliferation (CellTiter-Glo); format: cell-based; conditions: Homo sapiens, A-431, 72 h, read-out: EGFR IC50 (nM) A431
Experimental: 4. Experiment on the Inhibition of A431 Cell Proliferation
In this experiment, the inhibitory effect of the compounds on A431 cell proliferation was tested by a CellTiter-Glo method, and the half maximal inhibitory concentration (IC50) of the compounds on the activity of cell proliferation was determined.
The culture plate was incubated in the incubator for 16 to 24 hours (37° C., 5% CO2).
as §5
3) 50 to 100 μL of CellTiter-Glo reagent was added to each well. Then the culture plate was shaken for 10 minutes, and left to stand at room temperature for 10 minutes.
as §6
5) The inhibition rates were calculated according to the chemiluminescence signal values. 6) The IC50 of the compound was obtained by curve fitting according to the inhibition rates at different concentrations.

Chain of wild-type EGFR enzyme (P00533 25-1210): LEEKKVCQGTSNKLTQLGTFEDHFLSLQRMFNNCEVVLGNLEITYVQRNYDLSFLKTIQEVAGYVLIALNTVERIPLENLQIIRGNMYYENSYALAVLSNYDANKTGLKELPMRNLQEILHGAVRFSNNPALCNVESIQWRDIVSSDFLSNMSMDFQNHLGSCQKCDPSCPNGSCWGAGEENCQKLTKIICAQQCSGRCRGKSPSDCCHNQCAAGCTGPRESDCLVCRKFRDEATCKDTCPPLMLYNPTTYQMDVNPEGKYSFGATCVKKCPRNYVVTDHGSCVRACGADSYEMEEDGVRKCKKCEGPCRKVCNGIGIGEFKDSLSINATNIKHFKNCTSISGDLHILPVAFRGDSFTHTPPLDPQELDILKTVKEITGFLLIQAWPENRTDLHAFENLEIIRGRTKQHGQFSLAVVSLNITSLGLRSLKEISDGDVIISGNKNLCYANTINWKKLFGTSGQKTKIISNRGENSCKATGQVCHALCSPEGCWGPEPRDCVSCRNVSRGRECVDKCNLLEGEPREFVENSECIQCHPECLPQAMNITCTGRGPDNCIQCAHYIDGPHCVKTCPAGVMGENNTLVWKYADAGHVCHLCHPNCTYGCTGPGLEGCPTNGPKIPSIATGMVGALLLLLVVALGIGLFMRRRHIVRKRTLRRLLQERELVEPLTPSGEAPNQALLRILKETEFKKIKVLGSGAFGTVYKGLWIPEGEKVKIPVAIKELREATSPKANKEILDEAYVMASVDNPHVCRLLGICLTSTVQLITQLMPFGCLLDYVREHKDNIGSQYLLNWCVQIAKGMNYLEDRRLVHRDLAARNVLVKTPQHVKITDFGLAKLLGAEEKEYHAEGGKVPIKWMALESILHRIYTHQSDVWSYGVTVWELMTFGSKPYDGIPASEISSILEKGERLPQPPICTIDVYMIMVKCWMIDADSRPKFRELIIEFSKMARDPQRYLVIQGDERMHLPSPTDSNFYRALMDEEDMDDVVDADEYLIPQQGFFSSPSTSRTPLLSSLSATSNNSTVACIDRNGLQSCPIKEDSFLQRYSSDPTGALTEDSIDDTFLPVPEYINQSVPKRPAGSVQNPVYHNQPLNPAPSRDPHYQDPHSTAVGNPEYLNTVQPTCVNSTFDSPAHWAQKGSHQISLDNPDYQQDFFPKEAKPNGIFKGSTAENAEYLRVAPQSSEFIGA
Chain of exon 20 T790M mutant-type EGFR enzyme (P00533 25-1210 T790M): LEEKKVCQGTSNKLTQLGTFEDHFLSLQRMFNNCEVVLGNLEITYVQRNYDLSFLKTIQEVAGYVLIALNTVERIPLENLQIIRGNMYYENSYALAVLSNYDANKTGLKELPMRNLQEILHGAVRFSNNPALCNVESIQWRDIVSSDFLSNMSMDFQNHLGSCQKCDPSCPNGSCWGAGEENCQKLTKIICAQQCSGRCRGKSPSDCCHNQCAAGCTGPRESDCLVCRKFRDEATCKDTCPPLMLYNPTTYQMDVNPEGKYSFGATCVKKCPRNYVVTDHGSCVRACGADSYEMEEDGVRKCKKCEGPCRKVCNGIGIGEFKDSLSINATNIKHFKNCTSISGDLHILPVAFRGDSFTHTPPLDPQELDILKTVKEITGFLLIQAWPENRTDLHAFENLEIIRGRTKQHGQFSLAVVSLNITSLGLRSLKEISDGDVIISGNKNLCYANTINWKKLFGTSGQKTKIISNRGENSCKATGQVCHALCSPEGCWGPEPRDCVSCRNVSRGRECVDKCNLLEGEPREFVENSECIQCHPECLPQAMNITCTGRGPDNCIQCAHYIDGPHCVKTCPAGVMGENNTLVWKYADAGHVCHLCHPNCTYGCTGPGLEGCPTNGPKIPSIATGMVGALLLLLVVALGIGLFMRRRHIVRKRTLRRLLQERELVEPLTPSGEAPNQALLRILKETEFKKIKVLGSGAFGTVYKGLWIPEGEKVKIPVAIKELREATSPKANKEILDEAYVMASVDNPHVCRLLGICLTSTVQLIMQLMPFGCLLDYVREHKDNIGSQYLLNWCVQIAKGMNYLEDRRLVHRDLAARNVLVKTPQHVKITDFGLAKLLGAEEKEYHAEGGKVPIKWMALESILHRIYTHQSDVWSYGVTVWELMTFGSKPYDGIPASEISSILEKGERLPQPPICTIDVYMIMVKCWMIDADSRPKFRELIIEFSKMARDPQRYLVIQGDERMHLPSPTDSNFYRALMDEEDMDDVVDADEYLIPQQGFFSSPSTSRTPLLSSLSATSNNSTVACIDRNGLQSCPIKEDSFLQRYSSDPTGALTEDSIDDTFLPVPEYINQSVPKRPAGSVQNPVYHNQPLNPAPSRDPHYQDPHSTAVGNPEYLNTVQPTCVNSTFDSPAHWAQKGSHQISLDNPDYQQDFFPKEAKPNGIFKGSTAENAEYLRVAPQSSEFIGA

Row | SMILES | IC50 [1] [nM] | Selectivity of wild-type/mutant-type [1] | IC50 (wild-type EGFR enzyme) [nM] | IC50 (NCI-H1975 cells) [nM] | IC50 (A431 cells) [nM] | Selectivity of wild-type/mutant-type (NCI-H1975 cells)
1 | C=CC(=O)Nc1cc(Nc2nccc(-c3cn(C)c4ccccc34)n2)c(OC(F)F)cc1N1CCN(C)CC1 [Example 2, N-(4-(difluoromethoxy)-5-((4-(1-methyl-1H-indol-3-yl)pyrimidin-2-yl)amino)-2-(4-methylpiperazine-1-yl)phenyl)acrylamide] | 9.26 | 15 | 143 | 1.36 | 224 | 164
2 | C=CC(=O)Nc1cc(Nc2ncc(Cl)c(-c3cn(C)c4ccccc34)n2)c(OC(F)F)cc1N(C)CCN(C)C [Example 5, N-(5-((5-chloro-4-(1-methyl-1H-indol-3-yl)pyrimidin-2-yl)amino)-4-(difluoromethoxy)-2-((2-(dimethylamino)ethyl)(methyl)amino)phenyl)acrylamide] | 0.32 | 2.5 | 0.8 | 5.9 | 212 | 36
3 | C=CC(=O)Nc1cc(Nc2nccc(-c3cn(CCO)c4ccccc34)n2)c(OC(F)F)cc1N(C)CCN(C)C [Example 6, N-(4-(difluoromethoxy)-2-((2-(dimethylamino)ethyl)(methyl)amino)-5-((4-(1-(2-hydroxyethyl)-1H-indol-3-yl)pyrimidin-2-yl)amino)phenyl)acrylamide] | – | – | 1.54 | 2.2 | 208 | –
4 | C=CC(=O)Nc1cc(Nc2nccc(-c3cn(C(C)=O)c4ccccc34)n2)c(OC(F)F)cc1N(C)CCN(C)C [Example 7, N-(5-((4-(1-acetyl-1H-indol-3-yl)pyrimidin-2-yl)amino)-4-(difluoromethoxy)-2-((2-(dimethylamino)ethyl)(methyl)amino)phenyl)acrylamide] | – | – | 15.5 | 15.8 | 192 | –
5 | C=CC(=O)Nc1cc(Nc2nccc(-c3c[nH]c4ccccc34)n2)c(OC(F)F)cc1N(C)CCN(C)C [Example 8, N-(5-((4-(1H-indol-3-yl)pyrimidin-2-yl)amino)-4-(difluoromethoxy)-2-((2-(dimethylamino)ethyl)(methyl)amino)phenyl)acrylamide] | 0.42 | 8.8 | 3.64 | 5.21 | 56.2 | 10.8
6 | C=CC(=O)Nc1cc(Nc2nccc(-c3cn(C)c4cc(C#N)ccc34)n2)c(OC(F)F)cc1N(C)CCN(C)C [Example 9, N-(5-((4-(6-cyano-1-methyl-1H-indol-3-yl)pyrimidin-2-yl)amino)-4-(difluoromethoxy)-2-((2-(dimethylamino)ethyl)(methyl)amino)phenyl)acrylamide] | 0.39 | 5.44 | 2.12 | 4.58 | 216 | 47.07
7 | C=CC(=O)Nc1cc(Nc2ncc(Cl)c(-c3cn(C4CC4)c4ccccc34)n2)c(OC)cc1N(C)CCN(C)C [Example 100, N-(5-((5-chloro-4-(1-cyclopropyl-1H-indol-3-yl)pyrimidin-2-yl)amino)-2-((2-(dimethylamino)ethyl)(methyl)amino)-4-methoxyphenyl)acrylamide] | – | – | – | 8.72 | 350 | –
8 | C=CC(=O)Nc1cc(Nc2ncc(Cl)c(-c3cn(C4COC4)c4ccccc34)n2)c(OC)cc1N(C)CCN(C)C [Example 130, N-(5-((5-chloro-4-(1-(oxetan-3-yl)-1H-indol-3-yl)pyrimidin-2-yl)amino)-2-((2-(dimethylamino)ethyl)(methyl)amino)-4-methoxyphenyl)acrylamide] | – | – | – | – | 97 | –

The next lines start with results.

Row | IC50 [1] [nM] | Selectivity of wild-type/mutant-type [1] | IC50 (wild-type EGFR enzyme) [nM] | IC50 (NCI-H1975 cells) [nM] | IC50 (A431 cells) [nM] | SMILES | Selectivity of wild-type/mutant-type (NCI-H1975 cells)
9 | 0.39 | 16.3 | 6.41 | 10 | 158 | C=CC(=O)Nc1cc(Nc2nccc(-c3cn(C)c4cc(OC)ccc34)n2)c(OC(F)F)cc1N(C)CCN(C)C [Example 4, N-(4-(difluoromethoxy)-2-((2-(dimethylamino)ethyl)(methyl)amino)-5-((4-(6-methoxy-1-methyl-1H-indol-3-yl)pyrimidin-2-yl)amino)phenyl)acrylamide] | 15.78
10 | 0.51 | – | 5.35 | 10.9 | – | C#Cc1ccc2c(-c3ccnc(Nc4cc(NC(=O)C=C)c(N(C)CCN(C)C)cc4OC)n3)cn(C)c2c1 [Example 95, N-(2-((2-(dimethylamino)ethyl)(methyl)amino)-5-((4-(6-ethynyl-1-methyl-1H-indol-3-yl)pyrimidin-2-yl)amino)-4-methoxyphenyl)acrylamide] | –
11 | 0.47 | 9.23 | 4.34 | 2.32 | – | C=CC(=O)Nc1cc(Nc2nccc(-c3nn(C4CC4)c4ccccc34)n2)c(OC)cc1N(C)CCN(C)C [Example 119, N-(5-((4-(1-cyclopropyl-1H-indazol-3-yl)pyrimidin-2-yl)amino)-2-((2-(dimethylamino)ethyl)(methyl)amino)-4-methoxyphenyl)acrylamide] | –
12 | 4.18 | 45.43 | 190 | 30.8 | – | C=CC(=O)Nc1cc(Nc2nccc(-c3cn(C4CC4)c4ccccc34)n2)c(OC)cc1N(C)CCN1CCOCC1 [Example 124, N-(5-((4-(1-cyclopropyl-1H-indol-3-yl)pyrimidin-2-yl)amino)-4-methoxy-2-(methyl(2-morpholinoethyl)amino)phenyl)acrylamide] | –
13 | 1.51 | 10.17 | 15.4 | 34 | – | C=CCn1cc(-c2ccnc(Nc3cc(NC(=O)C=C)c(N(C)CCNC)cc3OC)n2)c2ccccc21 [Example 126, N-(5-((4-(1-allyl-1H-indol-3-yl)pyrimidin-2-yl)amino)-4-methoxy-2-(methyl(2-(methylamino)ethyl)amino)phenyl)acrylamide] | –
14 | 1.29 | 9.34 | 12 | 10.1 | – | C=CC(=O)Nc1cc(Nc2nccc(-n3nc(C)c4ccc(OC)cc43)n2)c(OC)cc1N(C)CCN1CCCC1 [Example 132, N-(4-methoxy-5-((4-(6-methoxy-3-methyl-1H-indazol-1-yl)pyrimidin-2-yl)amino)-2-(methyl(2-(pyrrolidin-1-yl)ethyl)amino)phenyl)acrylamide] | –
15 | 0.69 | 10.86 | 7.49 | 6.47 | – | C=CC(=O)Nc1cc(Nc2nccc(-n3ncc4cc(OCC)ccc43)n2)c(OC)cc1N(C)CCN1CCCC1 [Example 133] | –
16 | 1.44 | 6.36 | 9.16 | 6.28 | – | C=CC(=O)Nc1cc(Nc2nccc(-n3cnc4ccc(OC)cc43)n2)c(OC)cc1N(C)CCN1CCCC1 [Example 139, N-(4-methoxy-5-((4-(6-methoxy-1H-benzo[d]imidazol-1-yl)pyrimidin-2-yl)amino)-2-(methyl(2-(pyrrolidin-1-yl)ethyl)amino)phenyl)acrylamide] | –
17 | 0.6 | 11.1 | 6.62 | 7.51 | – | C=CCn1cc(-c2ccnc(Nc3cc(NC(=O)C=C)c(N(C)CCN(C)C)cc3OC)n2)c2ccccc21 [Example 141, N-(5-((4-(1-allyl-1H-indol-3-yl)pyrimidin-2-yl)amino)-2-((2-(dimethylamino)ethyl)(methyl)amino)-4-methoxyphenyl)acrylamide] | –
